Measurements published in patent publication US20110098351A1, “Lactone compounds which can be used as antioxidant agents in pharmaceutical, cosmetic or food compositions and their method of preparation” (COMMISSISSARIAT A L'ENERGIE ATOMIQUE, priority 2002, published 2011).

Experiments:
[1] = system: Human thyroid carcinoma K1 cells; experiment: Protection of K1 cells against cisplatin, sulphorhodamine B test; format: cell-based; conditions: norbadione 20 μg/ml added two hours before cisplatin 12 to 100 μM, two days, FIG. 7
Description: This test consists in measuring, in the presence of norbadione in the diacid or dipotassium salt form, the rate of survival of cells treated with cisplatin.
Human thyroid carcinoma K1 cells are cultured in flat-bottomed 96-well microtest plates in the presence of a single concentration (20 μg/ml) of norbadione in the diacid or dipotassium salt form. After two hours, a genotoxic agent, cisplatin, is added to the culture medium in increasing concentrations (from 12 to 100 μm). Two days later, the number of cells is determined by means of the sulphorhodamine B (termed SRB) test, which measures the quantity of cellular proteins.
Sulphorhodamine B (termed SRB) is an anionic dye which binds electrostatically to cellular proteins. This test is frequently used for the evaluation of the cytotoxic and cytostatic activities of novel antitumour drugs.
Further information relating to this technique is available in the article by Papazisis et al. “Optimization of the sulforhodamine B colorimetric assay”, J. Immunol. Meth, 208, pages 151-158, 1997 [8].
The results of this test are grouped together in FIG. 7, which represents the fluorescence observed after addition of SRB (expressed as arbitrary fluorescence units) as a function of the cisplatin concentration (in μM).

[2] = system: IL-10; experiment: IL-10 production by lipopolysaccharide-activated human PBMC, cytometric sandwich ELISA; format: cell-based; conditions: 10^-8 M to 10^-5 M, Salmonella abortus equi lipopolysaccharide 5 μg/ml, 24 hours, FIGS. 4 and 5
Description: (§1) This liposaccharide is an endotoxin located on the outer membrane of Gram-negative bacteria. In particular, it stimulates the production of proinflammatory cytokines by the mononuclear cells (monocytes, microphages) of the infected host.
(§2) This test is carried out in the following manner. […]
(§3) More specifically, the detection of the cytokines present in the samples is measured with the aid of a “sandwich” type cytometric ELISA assay. Microparticles (beads) of polystyrene (of 6 different types, each being labelled with a different quantity of fluorescent dye whose FL-3 emission wavelength is about 650 nm) are coupled to an antibody specific for one of the […] TNFα, IL-2, IL-10. […] The cytokines captured are detected with the aid of a directly performed immunological test which uses 2 antibodies specific for each cytokine, coupled to phycoerythrin which emits at an FL-2 wavelength of about 585 nm (Ab-PE). After washing the excess Ab-PE, the presence of the cytokines is measured by flow cytometry.
(§4) The fluorescence is measured based on the 6 FL-3 fluorescence intensities and based on the FL-2 wavelength. The intensity of the […] fluorescence makes it possible to determine the quantity of each cytokine present in the sample (in comparison with standard curves). […]

[3] = system: TNF-α; experiment: TNF-α production by lipopolysaccharide-activated human PBMC, cytometric sandwich ELISA; format: cell-based; conditions: 10^-8 M to 10^-5 M, Salmonella abortus equi lipopolysaccharide 5 μg/ml, 24 hours, FIGS. 4 and 5
Description: as §1, §2, §3, §4

[4] = system: RDM4 cell cultures (AKR mouse lymphomas); experiment: Protection of RDM4 cells subjected to ionizing radiation, Uptiblue test; format: cell-based; conditions: for number of living cells after irradiation (Uptiblue fluorescence, A.F.U.): 0.12 to 20 μg/ml added two hours before X rays 15 MV, 8 Gy, sixth day, FIG. 6
Description: This test consists in measuring, in the presence or in the absence of norbadione in diacid or dipotassium salt form, the rate of survival of cells treated with ionizing radiation, with the aid of selective indicators for certain cellular organelles such as mitochondria.
Samples of norbadione in diacid or dipotassium salt form are added to RDM4 cell cultures (AKR mouse lymphomas) in increasing concentrations (from 0.12 to 20 μg/ml), two hours before irradiation. This is carried out by exposing microtest plates containing the cells to X rays of 15 MV, at 8 Gy, the culture medium being unchanged.
The number of living cells is determined on the sixth day by means of the Uptiblue test (which consists in measuring the micochondrial activity of the cells). The Uptiblue reagent (reazurin, also marketed under the ALAMAR BLUE trade mark) is a coloured oxidation-reduction indicator. The reazurin (blue and nonfluorescent) is reduced to resorufin (pink and fluorescent) by living cells.
Experimentally, the Uptiblue (diluted ¼ in the culture medium) is added to the cells in an amount of 20 μl per 200 μl well. After incubating for 4 hours at 37° C., the fluorescence is measured at a wavelength of 590 nm, after excitation at a wavelength of 530 nm with the aid of a fluorescence microplate reader (Fluorolite 1000, Dynex). The fluorescence intensity is proportional to the number of living cells. It is expressed as “arbitrary fluorescence unit”. This value depends on the setting of the apparatus (in particular the voltage) and the background noise (due to the fluorescence emitted by wells not containing cells, but containing Uptiblue). The latter value is subtracted from the experimental values.
The results of this test are grouped together in FIG. 6, which represents the fluorescence observed which makes it possible to quantify the number of living cells, the said fluorescence being expressed as arbitrary fluorescence units on the y-axis of the graph (A.F.U) as a function of the concentration of norbadione in the diacid or dipotassium salt form, noted [Nor-A] or [Nor-B] (in μg/ml).

[5] = system: thymidine; experiment: Thymidine degradation test, gamma irradiation (caesium 137), competition ELISA of remaining thymidine; format: biochemical; conditions: dipotassium salt (Nor-B); gamma irradiation 3 h 30 min, 137Cs; thymidine 15 μM, antioxidant 12 μM; FIG. 1; compared with quercetin, fisetin, myricetin, catechin, 7-hydroxy-4-methyl-8-nitrocoumarin, Trolox
Description: (§5) The evaluation of the antioxidant activity of the dipotassium salt of norbadione was carried out by a screening test in vitro.
(§6) This test is based on the monitoring of the degradation of thymidine subjected to various oxidant stresses in the presence of various antioxidant agents, which are norbadione in dipotassium salt form (called Nor-B in FIGS. 1 to 3) in accordance with the invention, and the following antioxidant agents: quercitin (1), fisetin (2), myricetin (3), catechin (4), 7-hydroxy-4-methyl-8-nitrocoumarin (5), Trolox (6) in FIGS. 1 to 3.
(§7) In the presence of an antioxidant, thymidine is protected more or less effectively according to the nature of the said antioxidant. The efficacy of the antioxidant is quantified by assaying the remaining thymidine (quantified as % on the y-axis of the graph) with the aid of an immunoenzymatic assay of the so-called “competition” ELISA type. This ELISA assay consists in producing competition, for binding to a thymidine-specific monoclonal antibody attached to a solid phase, between the thymidine remaining at the end of test and the thymidine labelled with an enzyme (acetylcholine esterase). After washing, the bound enzyme is quantified by colorimetric detection with the aid of 5,5′-dithiobis(2-nitrobenzoic acid) (termed Ellmann's reagent) and in the presence of […]. […]

[6] = system: rat aorta rings; experiment: Contraction of rat aorta rings induced by pyrogallol (superoxide radicals); conditions: dipotassium salt form, 100 μM; FIG. 8
Description: (§8) The objective of this example is to show the antioxidant activity of norbadione in the dipotassium salt form on rat aorta rings.
During a first series of tests, rat aorta rings are subjected, in a first instance, to pyrogallol, which generates superoxide radicals, these radicals inducing contraction of the rat aorta rings and the rate of contraction of these rings is measured in the absence of norbadione.
In a second instance, the same operations are repeated, under the same conditions as those mentioned above, this time in the presence of norbadione.
The results are grouped together in FIG. 8, which represents the rate of vascular contraction of the rings C(g) as a function of the concentration of pyrrogallol [Pyr] (μM), in the absence of norbadione (curve a) and in the presence of norbadione at the concentration of 100 μM (curve b).

[7] = system: thymidine; experiment: Thymidine degradation test, ultraviolet irradiation at 254 nm with H2O2, competition ELISA of remaining thymidine; format: biochemical; conditions: dipotassium salt (Nor-B); UV 254 nm (1.75 J/cm^2), 5 mM H2O2; thymidine 70 μM, antioxidant 100 μM; FIG. 2; compared with conventional antioxidants (1)-(6)
Description: as §5, §6, §7

[8] = system: thymidine; experiment: Thymidine degradation test, chemical oxidant stress (Fenton's reagent), competition ELISA of remaining thymidine; format: biochemical; conditions: dipotassium salt (Nor-B); Fenton's reagent 0.35 mM FeSO4/EDTA, 35 mM H2O2; thymidine 70 μM, antioxidant 20 μM; FIG. 3; compared with conventional antioxidants (1)-(6)
Description: as §5, §6, §7

[9] = system: rat aorta rings; experiment: Relaxation of rat aorta rings induced by SYN-1 (3-morpholinosydnonimine, NO radicals); conditions: dipotassium salt form, 100 μM; FIG. 9
Description: as §8
During a second series of tests, rat aorta rings are subjected to SYN-1 (3-morpholinosydnonimine), which generates NO radicals, inducing relaxation of the rat aorta rings, and the rate of relaxation of these rings is measured. In the presence of norbadione, the rate of relaxation of the rings is measured under the same conditions as those mentioned above. The results are presented in FIG. 9, which represents the rate of vascular relaxation of the rings R(%) as a function of the Sin−1 concentration [Sin−1] (μM), in the absence of norbadione (curve a) and in the presence of norbadione (100 μM) (curve b).

Molecule: O=C1O/C(=C(/C(=O)O)c2ccc(O)cc2)C(O)=C1c1cc2c3c(c(O)cc(C4=C(O)/C(=C(\C(=O)O)c5ccc(O)cc5)OC4=O)c3c1)OC2=O [Nor-A, norbadione]
- cytotoxicity of cisplatin in the presence of norbadione (SRB test) [1]: very markedly attenuated
- production of the cytokine IL-10 (percentage response relative to control) [2]: significant dose-dependent reduction
- production of the cytokine TNF-α (percentage response relative to control) [3]: significant dose-dependent reduction
- number of living cells after irradiation (Uptiblue fluorescence, A.F.U.) ([4]; RDM4 cells): large increase
- number of living cells after irradiation (Uptiblue fluorescence, A.F.U.) ([4]; RDM4 cells, listed as norbadione diacid form): protects the cells against ionizing radiation in a significant and dose-dependent manner

Molecule: norbadione
- antioxidant power (percentage of thymidine remaining after oxidant stress) [5]: best antioxidant power
- number of living cells after irradiation (Uptiblue fluorescence) at the highest concentration ([4]; RDM4 cells, X rays 8 Gy, from a norbadione concentration of 20 μg/ml): decreases considerably
- effect on the growth and the viability of the RDM4 cells ([4]; without irradiation, even at 20 μg/ml): without effect
- contraction of the aorta rings caused by pyrogallol [6]: suppressed
- antioxidant power (percentage of thymidine remaining after oxidant stress) [7]: best antioxidant power
- antioxidant power (percentage of thymidine remaining after oxidant stress) [8]: best antioxidant power
- relaxation of the aorta rings caused by SYN-1 [9]: reduced

Molecule: O=C1O/C(=C(/C(=O)[O-])c2ccc(O)cc2)C(O)=C1c1cc2c3c(c(O)cc(C4=C(O)/C(=C(\C(=O)[O-])c5ccc(O)cc5)OC4=O)c3c1)OC2=O.[K+].[K+] [Nor-B, norbadione]
- cytotoxicity of cisplatin in the presence of norbadione (SRB test) [1]: very markedly attenuated
- production of the cytokine IL-10 (percentage response relative to control) [2]: significant dose-dependent reduction
- production of the cytokine TNF-α (percentage response relative to control) [3]: significant dose-dependent reduction
- number of living cells after irradiation (Uptiblue fluorescence, A.F.U.) ([4]; RDM4 cells): large increase
- number of living cells after irradiation (Uptiblue fluorescence, A.F.U.) ([4]; RDM4 cells, listed as norbadione disalt form): protects the cells against ionizing radiation in a significant and dose-dependent manner
